# According to patent publication EP1175907A1, “REMEDIES” (Takara Shuzo Co, Ltd., priority 1999, dated 2000):
# Values joined by “and” are separate entries in the source; they are usually repeats but may differ in a detail not shown here. Equal entries are not always repeated.
# Key:
# MRC-5 cells [1] = assay: induction action for HGF production in MRC-5 cells (HGF ELISA of medium); type: cell-based, Human; conditions: 24 h, control = 100%
# Description: (1) Five-hundred microliters each of MRC-5 cells (CCL171: manufactured by DAINIPPON PHARMACEUTICAL CO., LTD., code. 02-021) suspended in a DME medium containing 10% fetal bovine serum so as to have a concentration of 1 × 10^5 cells/ml were added into each well of a 48-well cell culture plate. The cells were cultured at 37°C for 24 hours in the presence of 5% CO2, and then the medium was exchanged for a DME medium containing 1% fetal bovine serum. […] The medium was then collected, and by using Quantikine Human Hepatocyte Growth Factor (HGF) ELISA Kit (manufactured by Funakoshi, Code. RS-0641-00), the amount of HGF in the medium was determined.
# As a control, distilled water was added in the same volume as that of the sample. The amount of HGF of the control was 7.2 ng/ml. The amount of HGF produced in each sample-added group is shown in Table 1, assuming that the value of the control is 100%. Each experiment was carried out twice, and its average value was taken.
# MRC-5 cells [2] = assay: HGF production in MRC-5 cells with cycloheximide (protein synthesis inhibitor); type: cell-based, Human; conditions: for Amount of HGF Produced (in Medium): control = 100%
# Description: (1) Five-hundred microliters of a solution containing MRC-5 cells suspended in a DME medium containing 10% fetal bovine serum so as to have a concentration of 1 × 10^5 cells/ml were added into each well of a 48-well cell culture plate. The cells were cultured at 37°C for 24 hours in the presence of 5% CO2, and then the medium was exchanged for a DME medium containing 1% fetal bovine serum. Thereafter, cycloheximide (protein synthesis inhibitor: manufactured by nacalaitesque) was added thereto so as to have a final concentration of 0, 1, or 10 µg/ml, and a sample to be analyzed was further added thereto. Thereafter, the cells were cultured for 24 hours. This medium was collected, and the amount of HGF in the medium was determined by using the HGF ELISA Kit. The fucoidan derived from Kjellmaniella crassifolia described in item (1) of Reference Example 1 was added so as to have a final concentration of 1, 10 or 100 µg/ml. As a control, distilled water was added in the same volume as that of the sample. Each experiment was carried out twice, and an average value was taken. In Table 50, the amount of HGF produced of the control was regarded as 100%.
# (2) Five-hundred microliters of MRC-5 cells (CCL171: manufactured by DAINIPPON PHARMACEUTICAL CO., LTD., code. 02-021) suspended in a DME medium containing 10% fetal bovine serum so as to have a concentration of 1 × 10^5 cells/ml were added into each well of a 48-well cell culture plate. The cells were cultured at 37°C for 24 hours in the presence of 5% CO2, and then the medium was exchanged for a DME medium containing 1% fetal bovine serum. Thereafter, cycloheximide (protein synthesis inhibitor: manufactured by nacalaitesque) was added thereto so as to have a final concentration of 0, 1, or 10 µg/ml, and a sample to be analyzed was further added thereto. The cells were then cultured for 24 hours. This medium was collected, and the amount of HGF in the medium was determined by using Quantikine Human Hepatocyte Growth Factor (HGF) ELISA Kit (manufactured by Funakoshi, Code. RS-0641-00). In addition, the cells were washed with PBS, and thereafter dissolved in 500 µl of a cytolytic buffer (50 mM HEPES, pH 7.4; 10 mM EDTA, 0.1% Triton x 100; 1 mM PMSF; 1 µg/ml pepstatin A and 1 µg/ml leupeptin). Further, in order to completely dissolve the cells, the mixture was subjected to sonication treatment, and then centrifuged, to give a supernatant (cell extract). The amount of HGF in the cell was determined in the same manner as that of the concentration of HGF in the medium. As to the amount of HGF produced, negative control was regarded as 100%. As to the inhibitory ratio, the inhibitory ratio (%) in the cycloheximide-added fraction was calculated on the basis of the amount of HGF produced when 7-12SFd-F was added alone at each concentration. 7-12SFd-F was added so as to have a final concentration of 1, 10 or 100 µg/ml. As the negative control, distilled water was added in the same volume as that of the sample. Each experiment was carried out three times, and an average value was taken. […] It was clarified from these findings that protein synthesis was involved in the induction of HGF production by 7-12SFd-F, not simply freeing of HGF from the cells.
Molecule,Amount of HGF Produced (MRC-5 cells [1]; sample 1 µg/ml) [%],Amount of HGF Produced (MRC-5 cells [1]; sample 10 µg/ml) [%],Amount of HGF Produced (MRC-5 cells [1]; sample 100 µg/ml) [%],Amount of HGF Produced (MRC-5 cells [1]; sample 1000 µg/ml) [%],also measured
sodium salt of sulfated D-(+)- mannose [Sodium Salt of Sulfated Mannose],112,175,456,,
sodium salt of sulfated maltose,142,273,439,,
sodium salt of sulfated D-(+)-glucose [Sodium Salt of Sulfated Glucose],178,377,864,,
sodium salt of sulfated turanose,,127,203,379,
sodium salt of sulfated melibiose,,240,403,667,
sodium salt of sulfated palatinose,,132,278,519,
sodium salt of sulfated D-(+)- xylose [Sodium Salt of Sulfated Xylose],,110,112,284,
sodium salt of sulfated D-glucitol [Sodium Salt of Sulfated Glucitol],,112,203,335,
sodium salt of sulfated D-(+)-galactose [Sodium Salt of Sulfated Galactose],,,166,,
sodium salt of sulfated sucrose,173,355,501,,
sodium salt of sulfated lactulose,,139,376,583,
sodium salt of sulfated lactose,118,185,410,,
"C[C@@H]1C[C@@H]([C@H](O)CC2CC(=O)NC(=O)C2)C(=O)[C@@H](C)C1 [Cycloheximide, cycloheximide]",,,,,Amount of HGF Produced (Total in Cells and in Medium) (MRC-5 cells [2]; Cycloheximide 1 µg/ml alone): 31%; Inhibitory Ratio Where Cycloheximide Non-Added Group Was Regarded as 100% (Total in Cells and in Medium) (MRC-5 cells [2]; Cycloheximide 1 µg/ml alone): 69%; Inhibitory Ratio Where Cycloheximide Non-Added Group Was Regarded as 100% (in Medium) (MRC-5 cells [2]; Cycloheximide 1 µg/ml alone): 60%; Amount of HGF Produced (in Medium) (MRC-5 cells [2]; Cycloheximide 1 µg/ml alone): 35% and 40%; Amount of HGF Produced (Total in Cells and in Medium) (MRC-5 cells [2]; Cycloheximide 10 µg/ml alone): 27%; Inhibitory Ratio Where Cycloheximide Non-Added Group Was Regarded as 100% (Total in Cells and in Medium) (MRC-5 cells [2]; Cycloheximide 10 µg/ml alone): 73%; Inhibitory Ratio Where Cycloheximide Non-Added Group Was Regarded as 100% (in Medium) (MRC-5 cells [2]; Cycloheximide 10 µg/ml alone): 60%; Amount of HGF Produced (in Medium) (MRC-5 cells [2]; Cycloheximide 10 µg/ml alone): 27% and 40%
sodium salt of sulfated isomaltose,,134,301,477,
sodium salt of sulfated dodecyl-maltohexaose,,289,371,359,
sodium salt of sulfated trehalose,277,447,421,,
sodium salt of sulfated D-talose [Sodium Salt of Sulfated Talose],,112,263,494,
sodium salt of sulfated maltoheptaose,,341,486,706,
sodium salt of sulfated maltohexaose,,407,571,761,
sodium salt of sulfated maltotriose,151,286,387,,
sodium salt of sulfated 2-deoxy-glucose,,127,102,239,
sodium salt of sulfated cellobiose,,100,143,546,
